Like-named read-outs stand apart in the source and are kept apart here.

For the assay, the target named is T1, IKur in human atrial myocytes (Homo sapiens, UniProt P22460).
T1 construct: Human myocytes were isolated from specimens of right atrial appendage obtained from patients; endogenous in cells; host or cells: human atrial myocytes from right atrial appendage of patients undergoing cardiopulmonary bypass
Nature of the assay: Voltage clamp measurement of IKur block (rested state, use-dependent, rate-dependent) in human atrial myocytes. Particulars: for inhibition at 0.03 µM / inhibition at 0.1 µM / Rate-Dpdnt Ratio / Use-Dpdnt Ratio / inhibition at 0.3 µM / inhibition at 1 µM: human atria; for Rate-Dpdnt Ratio: 3 Hz vs 1 Hz, last pulse, <1 = rate-dependent; for Use-Dpdnt Ratio: 10th vs 1st pulse @ 1 Hz, <1 = use-dependent; for selective blockade of IKur (in words): relative to other cardiac K+ channels. It counts as cell-based. An excerpt:
B. Measurement of IKur in Human Atrial Myocytes
Isolation of Human Atrial Myocytes:
Human myocytes were isolated from specimens of right atrial appendage obtained from patients undergoing cardiopulmonary bypass, using a modification of the procedure described by Fermini B, Wang Z, Duan D and Nattel S., "Differences in rate dependence of transient outward current in rabbit and human atrium" Am. J. Physiol. […] All tissues were collected in accordance with Temple University School of Medicine Institutional guidelines. […] Tissue samples were quickly immersed in cold (0-4° C.) cardioplegia solution containing (in mM/L): 50 KH2 PO4, 8 MgSO4, 10 NaHCO3, 5 adenosine, 25 taurine, 140 glucose, and 100 mannitol, pH 7.4 and bubbled with 100% O2. […] The tissue was gently agitated by continuous bubbling with 100% O2 for 5 min. […] The supernatant was removed after 40 min and discarded. The chunks were then incubated in a solution of the same ionic composition but supplemented with only collagenase and […]. Microscopic examination of the medium was performed every 10-20 min to determine the number and quality of isolated cells. When the yield appeared maximal, the tissue chunks were suspended in a modified Kraftbruhe solution containing (in mM/L): 25 KCl, 10 KH2 PO4, 25 taurine, 0.5 EGTA, 22 glucose, 55 glutamic acid, and 0.1% bovine albumin, pH 7.3 (22-24° C.) and gently triturated using a large bore Pasteur pipette. The supernatant was collected in a 50 ml centrifuge tube. […] Cells were used within 2-24 hr after isolation.
A small aliquot of the solution containing the isolated human atrial myocytes was placed in a 1-ml chamber mounted on the stage of an inverted microscope. Five minutes were allowed for cell adhesion to the bottom of the chamber. To record IKur, human atrial myocytes were superfused with a solution of the same ionic composition as that used for Kv1.5. An alternative external solution was sometimes used in which NaCl was replaced with NMDG (formal name: N-methyl-d-glucamine) to inhibit INa.
Currents were elicited by 150 ms depolarizing test pulses to +40 mV from a holding potential of -50 mV to inactivate Ito and INa. The amplitude of IKur was measured as the amplitude of the time-dependentcurrent at the end of the test pulse, relative to the holding current level. […] All experiments were performed at room temperature (22-24° C.).
C. Measurement of Use-Dependent and Rate-Dependent Block.
Pulses were applied in 10 second long trains delivered after 30 second rest intervals at frequencies of 1 Hz (10 pulses) or 3 Hz (30 pulses). Percent block of the current is defined as the % decrease in the current amplitude produced by an agent during a given pulse relative to the control current amplitude for that pulse. Rested-state block is the block of the current during the first pulse in a train following the 30 sec rest period. Use-dependent block is block that occurs to a progessively greater extent with each successive depolarization in a train or sequence of pulses or depolarizations delivered at a given rate or frequency. Thus, during a train of 10 depolarizations at frequency of 1 Hz, use-dependent block is assessed as the ratio of the amount of block for the 10th pulse relative to block for the 1st pulse (rested state block) of the train. Rate-dependent block is block that occurs to a greater extent or preferentially at faster rates of depolarization or heart rates. Thus, rate-dependent block is assessed as the ratio of the amount of block of the current during the last pulse of the 10 sec train at 3 Hz vs. 1 Hz. Consequently, ratios of less than one (<1) are indicative of use-dependentand rate-dependent block and the lower the ratio the greater the degree of use and rate dependence.

Setting [1] is: 30 nM, 1st pulse @ 1 Hz, +40 mV from -50 mV, read-out: Average % Block, Rested State, 1st pulse.
The mark [2] stands for this setting: 30 nM, 10th pulse @ 1 Hz, read-out: Average % Block, Use-Dpdnt, 10th pulse.
The mark [3] stands for this setting: 30 nM, 30th pulse @ 3 Hz, read-out: Average % Block, Rate-Dpdnt, 30th pulse.
Setting [4] is: 100 nM, 1st pulse @ 1 Hz, read-out: Average % Block, Rested State, 1st pulse.
Setting [5] is: 100 nM, 10th pulse @ 1 Hz, read-out: Average % Block, Use-Dpdnt, 10th pulse.
[6] abbreviates: 100 nM, 30th pulse @ 3 Hz, read-out: Average % Block, Rate-Dpdnt, 30th pulse.

T1 sequence (P22460 whole entry): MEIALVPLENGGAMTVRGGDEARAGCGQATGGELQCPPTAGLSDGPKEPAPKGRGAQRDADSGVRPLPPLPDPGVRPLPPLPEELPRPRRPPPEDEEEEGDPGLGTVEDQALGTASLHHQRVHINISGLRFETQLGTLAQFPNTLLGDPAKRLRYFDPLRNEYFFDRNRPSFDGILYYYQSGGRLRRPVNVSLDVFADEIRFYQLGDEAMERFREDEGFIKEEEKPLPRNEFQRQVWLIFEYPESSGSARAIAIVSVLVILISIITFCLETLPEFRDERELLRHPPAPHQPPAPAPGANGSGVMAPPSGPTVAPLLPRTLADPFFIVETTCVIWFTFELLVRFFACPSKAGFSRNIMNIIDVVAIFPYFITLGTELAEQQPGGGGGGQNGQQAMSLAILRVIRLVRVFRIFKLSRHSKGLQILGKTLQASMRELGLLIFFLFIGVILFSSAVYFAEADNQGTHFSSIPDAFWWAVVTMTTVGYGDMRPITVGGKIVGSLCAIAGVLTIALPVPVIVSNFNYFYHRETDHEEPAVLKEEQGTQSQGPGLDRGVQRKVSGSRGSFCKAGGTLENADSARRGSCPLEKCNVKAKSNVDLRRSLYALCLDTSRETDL

`CC1CCC(C(C)C)C(P(=O)(c2ccccc2)c2ccccc2)C1` (stereo not drawn) [A, (2-Isopropyl-5-methylcyclohexyl)diphenylphosphine oxide]: the inhibition at 0.03 µM reads like this: under setting [1], 21.9%; under setting [2], 33%; under setting [3], 48.4%. In addition, the inhibition at 0.1 µM under setting [4] turned out to be 35.6%, the inhibition at 0.1 µM under setting [5] turned out to be 59.7% and the inhibition at 0.1 µM under setting [6] worked out at 75.7%. In addition, the “rate-dependent block of IKur (in words)” value (human atrial myocytes) is recorded as “strong rate-dependent profile”. Besides, the “use-dependent block of IKur (in words)” value (human atrial myocytes) was “use-dependentblockade” and the “use-dependent block of IKur (in words)” value (human atrial myocytes, listed as (2-isopropyl-5-methylcyclohexyl)diphenyl-phosphine oxide) is “strong use-dependent profile”.
Regarding `Cc1cc(C)c(CP(=O)(c2ccccc2)c2ccccc2)c(-c2ccc(F)c(C)c2)c1` [B, 2-(Diphenylphosphinylmethyl)-4'-fluoro-3,5,3'-trimethyl-biphenyl], the inhibition at 0.1 µM by setting is: under setting [4], 10.4%; under setting [5], 17.8%; under setting [6], 11.6%. Moreover, the “Rate-Dpdnt Ratio” value (100 nM) stood at 1.53 and the “Rate-Dpdnt Ratio” value (300 nM) came out at 0.93. Moreover, the “Use-Dpdnt Ratio” value stood at 0.58 (100 nM) and 0.82 (300 nM). In addition, the inhibition at 0.3 µM runs as follows: (300 nM, 1st pulse @ 1 Hz, read-out: Average % Block, Rested State, 1st pulse) 25.8%; (300 nM, 10th pulse @ 1 Hz, read-out: Average % Block, Use-Dpdnt, 10th pulse) 31.3%; (300 nM, 30th pulse @ 3 Hz, read-out: Average % Block, Rate-Dpdnt, 30th pulse) 33.8%. In addition, the “use-dependent block of IKur (in words)” value (human atrial myocytes) is listed as “use-dependentblockade”. Also, the “selective blockade of IKur (in words)” value (human atrial myocytes) is recorded as “selective blockade”.
As to `COc1ccc(-n2nc(Sc3ccc(Cl)cc3)c(C)c(C#N)c2=O)cc1` [C, 6-(4-Chlorophenylthio)-2-(4-methoxyphenyl)-5-methyl-3-oxo-2,3-dihydropyridazine-4-carbonitrile], the inhibition at 0.03 µM is 35.7% under setting [1], 43.2% under setting [2] and 42.9% under setting [3]. In addition, the “Rate-Dpdnt Ratio” value was determined as 1.01 (30 nM) and 1.13 (100 nM). For the same compound, the “Use-Dpdnt Ratio” value (30 nM) is reported as 0.83 and the “Use-Dpdnt Ratio” value (100 nM) stood at 0.94. The inhibition at 0.1 µM is, setting by setting: under setting [4], 63.8%; under setting [5], 67.9%; under setting [6], 60.1%. In addition, the IC50 (usually the concentration that gives 50% inhibition) (first pulse of 10 at 1 Hz, +40 mV from -50 mV, read-out: Rested State IC50, IKur in Human Atrium) stood at 130 nM. The “use-dependent block of IKur (in words)” value (human atrial myocytes) is “use-dependentblockade”. Moreover, the “selective blockade of IKur (in words)” value (human atrial myocytes) is recorded as “selective blockade”.
With `COc1ccc(-n2nc(Sc3ccc(C)cc3)c(C)c(C#N)c2=O)cc1` [D], the inhibition at 0.1 µM runs as follows: under setting [4], 61%; under setting [5], 68%. For the same compound, the “Use-Dpdnt Ratio” value is 0.90 (100 nM) and 1.02 (1000 nM). The inhibition at 1 µM (1000 nM, 1st pulse @ 1 Hz, read-out: Average % Block, Rested State, 1st pulse) amounted to 81.7% and the inhibition at 1 µM (1000 nM, 10th pulse @ 1 Hz, read-out: Average % Block, Use-Dpdnt, 10th pulse) is 80%. Also, the “use-dependent block of IKur (in words)” value (human atrial myocytes) was “use-dependentblockade”. Also, the “selective blockade of IKur (in words)” value (human atrial myocytes) is on record as “selective blockade”.

The record behind these values is patent publication US5969017A, “Methods of treating or preventing cardiac arrhythmia” (Merck & Co., Inc., priority 1997, dated 1999).
